Literature values as cited in patent publication US7105537B2, “2-substituted cyclic amines as calcium sensing receptor modulators” (Bristol-Myers Squibb Company, priority 2003, dated 2006).

Key:
[1] = intravenous bolus injection
[2] = test system: osteopenic ovariectomized (OVX) rats; conditions: oral administration, in the presence of an anti-resorptive agent
[3] = test system: postmenopausal women; conditions: placebo-controlled trial

CC(C)(Cc1ccc2ccccc2c1)NC[C@@H](O)COc1cccc(Cl)c1C#N [NPS-2143]
serum PTH [1]: transient increase in serum PTH | bone mass [2]: increase in bone mas

PTH peptide fragment (1–34): "the PTH peptide fragment (1–34) was shown to reduce the risk of spine fractures and non-traumatic, non-spine fractures" (SVSEIQLMHNLGKHLNSMERVEWLRKKLQDVHNF; Parathyroid hormone; UniProt P01270 32-65, looked up, fragment)
reduction of the risk of non-traumatic, non-spine fractures [3]: 54% | reduction of the risk of spine fractures [3]: 65%
